From US20230293565A1, “USE OF WNT/BETA-CATENIN PATHWAY INHIBITORS TO BLOCK REPLICATION OF SARS-COV-2 AND OTHER PATHOGENIC VIRUSES” (THE GOVERNORS OF THE UNIVERSITY OF ALBERTA, priority 2020, published 2023)

System: SARS-CoV-2 variants (D614G, UK B.1.1.7, SA B.1.351, Brazil P.1)
Assay type: cell-based

| Compound | reduction of SARS-CoV-2 variant titers |
| --- | --- |
| Cc1cc(/C=C/c2ccc3cc(N(C)C)ccc3[n+]2C)c(C)n1-c1ccccc1 [Pyrvinium] | 77-96% |
| O=C([O-])CCN1C(=O)/C(=C/c2ccc(-c3ccc([N+](=O)[O-])cc3)o2)SC1=S.[K+] [KYA1797K] | 85-96% |
